Test system: tyrosinase from mushroom
Test: Inhibition of tyrosinase, absorbancy at 475 nm with tyrosine substrate
Type: biochemical
Conditions: for percent inhibition of the tyrosinase: pH 6.8 sodium acetate buffer, Example 1
Procedure: A buffer solution A containing 50 mM sodium acetate was prepared to yield a 6.8 pH.
A test tube was charged with 2.7 ml of buffer solution A and 0.4 ml. water to define a blank. Similarly, another test tube was charged with 2.7 ml. of the tyrosine solution, 0.3 ml of water, and 0.1 ml of the tyrosinase solution to define a reference. The absorbency of the reference was measured at 475 nm over a period of time with a spectrophotometer and the absorbancy was set to zero.
A test tube was charged with 2.7 ml of the tyrosine solution, 0.1 ml. of the tyrosinase solution and 0.02% of mercaptosuccinic acid together with 0.5% acerola cherry fermentate.

percent inhibition of the tyrosinase (0.5 hours)	percent inhibition of the tyrosinase (24 hours)	Percent Inhibition (0.5 hours) (0.5 hours, Table 1)	Percent Inhibition (24 hours) (24 hours, Table 1)	Compound
95%	77%	–	–	O=C(O)CC(S)C(=O)O (stereo not shown) [compound 1, mercaptosuccinic acid]
–	–	91	92	O=c1cc(CO)occ1O [Comparative Example 2, kojic acid]
